According to article PMC9916969 (International Journal of Molecular Sciences, 2023):
“And” between values parts separate entries of the source, which are not always exact repeats. Identical values can stand only once. Like-named read-outs stand apart in the source and are kept apart here.

Assays:
[1] = ethanol, difference spectra, two bands, cited from earlier work
[2] = ethanol, difference spectra, two bands, cited from earlier work; remark: listed apart in the source
EeAChE PAS = biological target: T1, EeAChE PAS (Electrophorus electricus, UniProt O42275); type: binding; conditions: compound 20 µM; EeAChE 7 µM; propidium iodide 8 µM
T1 construct: The enzyme was electric eel AChE (EeAChE type VI-S, lyophilized powder, Sigma-Aldrich); purchased Sigma-Aldrich type VI-S; host or cells: electric eel (tissue-derived)
Text: This method is widely used as a screening approach to assess the potential ability of compounds to block AChE-induced β-amyloid aggregation. This is because when the compounds bind to the AChE PAS, they prevent the binding of β-amyloid, thereby inhibiting its aggregation.
The enzyme was electric eel AChE (EeAChE type VI-S, lyophilized powder, Sigma-Aldrich). We selected this source of AChE for consistency with our other reports and because of the purity, specific activity, and lower cost compared to human AChE.
Propidium iodide (final concentration 8 μM) was then added for a further 15 min incubation, and the fluorescence spectrum was taken (530 nm excitation and 600 nm emission) using a FLUOStar Optima microplate reader. The same concentration of propidium iodide in the Tris buffer was used as the blank. Triplicate determinations were recorded and the results were calculated via the following equation:% Displacement = 100 − (IFAChE+ Propidium + inhibitor/IFAChE + Propidium) × 100, where IFAChE + Propidium = fluorescence intensity of propidium iodide associated with AChE in the absence of the test compound (taken as 100%), and IFAChE + Propidium + inhibitor = fluorescence intensity of propidium iodide associated with AChE in the presence of the test compound.

[3] = ABTS radical cation scavenging assay; set-up: key to ABTS^•+ Scavenging Activity, TEAC: TEAC: ratio of compound slope to Trolox slope (Trolox equivalents); conditions: 1 h incubation; for IC50: 50% reduction of ABTS radical cation; for ABTS^•+ Scavenging Activity, TEAC: Trolox equivalent, n.a. = not active
Description: In the ABTS assay, the dark-green ABTS cation-radical (ABTS^•+) is quenched by interaction with AOs. The consequent decrease in absorbance is followed spectrophotometrically per the previously described method.
Radical scavenging activity of the compounds was assessed using the ABTS radical cation (ABTS^•+) decolorization assay with some modifications. ABTS (2,2′-azinobis-(3-ethylbenzothiazoline-6-sulfonic acid) was purchased from Tokyo Chemical Industry Co., Ltd. (Tokyo, Japan); potassium persulfate (dipotassium peroxodisulfate), Trolox (6-hydroxy-2,5,7,8-tetramethylchroman-2-carboxylic acid), and HPLC-grade ethanol and DMSO were obtained from Sigma-Aldrich (Saint Louis, MO, USA). Aqueous solutions were prepared using deionized water. All tested compounds were dissolved in DMSO.
The solution of cation radical ABTS^•+ was produced by incubation of an aqueous solution of 7 mM ABTS and 2.45 mM potassium persulfate solution in equal quantities for 12–16 h at room temperature in the dark. Radical scavenging capacity of the compounds was analyzed by mixing 10 μL of compound with 240 μL of ABTS^•+ working solution in ethanol (100 μM final concentration). The reaction was monitored for an hour at 30 °C with an interval of 10 min. Data are given for 1 h of incubation of compounds with ABTS^•+. The reduction in absorbance was measured spectrophotometrically at 734 nm using an xMark microplate UV/VIS spectrophotometer (Bio-Rad, Hercules, CA, USA). Ethanol blanks were run in each assay. Values were obtained from five replicates of each sample and three independent experiments.
The standard AO Trolox was used as a reference compound. AO capacity as Trolox equivalent (TEAC) values was determined as the ratio between the slopes obtained from the linear correlation of the ABTS radical absorbance with the concentrations of tested compounds and Trolox. Ascorbic acid was used as a positive control. […]. The compounds were tested in the concentration range of 0.5–100 µM.

[4] = ethanol, difference spectra, two bands, cited from earlier work; remark: listed apart in the source
[5] = Metal chelation by UV-Vis spectroscopy, Cu2+; conditions: ethanol, 25 °C; compound and metal 40 μM; difference spectra; two bands per compound
[6] = Metal chelation by UV-Vis spectroscopy, Zn2+; conditions: ethanol, 25 °C; compound and metal 40 μM; difference spectra; two bands per compound
FRAP assay = conditions: Trolox equivalents; 60 min, 37 °C; n.a. = not active
Description: The Ferric Reducing Antioxidant Power (FRAP) test involves reduction of the ferric 2,4,6-tripyridyl-s-triazine complex [Fe(TPTZ)2]^3+ to an intense-blue ferrous complex [Fe(TPTZ)2]^2+ [92], as previously reported. Results are given as Trolox Equivalents (TE).
The FRAP (ferric reducing antioxidant power) assay proposed by Benzie and Strain [92] was modified to be performed in 96-well microplates as described in detail in [53]. The FRAP reagent contained 2.5 mL of 10 mM TPTZ (2,4,6-tris(2-pyridyl)-s-triazine, Sigma-Aldrich) solution in 40 mM HCl, 2.5 mL of 20 mM FeCl3 (Sigma-Aldrich) in distilled water and 25 mL of 0.3 M acetate buffer (pH 3.6). Aliquots of 10 µL of the test compound dissolved in DMSO (0.5 mM) were placed in quadruplicate. Absorbance was measured at a wavelength of 593 nm after 60 min incubation at 37 °C. In each case, Trolox was used as a reference compound to obtain the standard curve. The AO activity was calculated with respect to the activity of Trolox and expressed as Trolox equivalents (TE)—the values calculated as the ratio of the concentrations of Trolox and the test compound resulting in the same effect on ferric reducing activity.

eqBChE = biological target: T2, eqBChE (Equus caballus, UniProt P81908); assay: Kinetic study of BChE inhibition (Lineweaver-Burk); type: biochemical; conditions: for αKi (non-competitive inhibition constant), eqBChE: mixed-type inhibition, mean ± SEM; for Ki: read-out: Ki (competitive inhibition constant), eqBChE
T2 construct: human erythrocyte AChE, equine serum BChE, and porcine liver CES were used; purchased Sigma-Aldrich; host or cells: equine serum (tissue-derived)
Description: Similar results were obtained for other tested compounds (Figures S61 and S62). The obtained values of inhibition constants (Ki = competitive component and αKi = non-competitive component) are shown in Table 2.
(§1) We assessed the mechanisms of AChE and BChE inhibition by performing a thorough analysis of enzyme kinetics. After a 5 min incubation at 25 °C (for temperature equilibration) with three increasing concentrations of inhibitor and six decreasing substrate concentrations, the residual enzyme activity was measured as described above for enzymatic assays.

AChE = biological target: T3, AChE (Homo sapiens, UniProt P22303); assay: Kinetic study of AChE inhibition (Lineweaver-Burk); type: biochemical; conditions: for αKi (non-competitive inhibition constant), AChE: mixed-type inhibition, mean ± SEM; for Ki: read-out: Ki (competitive inhibition constant), AChE
T3 construct: human erythrocyte AChE, equine serum BChE, and porcine liver CES were used; purchased Sigma-Aldrich; host or cells: human erythrocytes (tissue-derived)
Description: as §1

[7] = absorption band at 337, 323, 308 nm

T3 sequence (P22303 32-617 isoform P22303-2 limits assumed): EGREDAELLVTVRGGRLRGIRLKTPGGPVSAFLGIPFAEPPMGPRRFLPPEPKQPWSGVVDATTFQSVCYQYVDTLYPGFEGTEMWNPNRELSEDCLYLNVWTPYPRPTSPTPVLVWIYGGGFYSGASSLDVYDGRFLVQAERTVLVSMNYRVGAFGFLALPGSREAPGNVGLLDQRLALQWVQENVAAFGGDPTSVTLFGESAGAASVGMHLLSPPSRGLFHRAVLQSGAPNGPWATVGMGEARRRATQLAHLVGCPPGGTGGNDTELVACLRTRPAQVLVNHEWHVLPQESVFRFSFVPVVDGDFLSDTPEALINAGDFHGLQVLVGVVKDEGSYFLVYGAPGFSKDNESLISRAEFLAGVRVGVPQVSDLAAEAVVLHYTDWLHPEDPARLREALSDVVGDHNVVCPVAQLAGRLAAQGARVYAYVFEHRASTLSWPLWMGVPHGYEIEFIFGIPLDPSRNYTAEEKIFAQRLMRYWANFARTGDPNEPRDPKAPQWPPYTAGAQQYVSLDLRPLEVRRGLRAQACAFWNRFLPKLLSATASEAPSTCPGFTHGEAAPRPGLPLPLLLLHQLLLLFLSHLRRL
T2 sequence (P81908 whole entry): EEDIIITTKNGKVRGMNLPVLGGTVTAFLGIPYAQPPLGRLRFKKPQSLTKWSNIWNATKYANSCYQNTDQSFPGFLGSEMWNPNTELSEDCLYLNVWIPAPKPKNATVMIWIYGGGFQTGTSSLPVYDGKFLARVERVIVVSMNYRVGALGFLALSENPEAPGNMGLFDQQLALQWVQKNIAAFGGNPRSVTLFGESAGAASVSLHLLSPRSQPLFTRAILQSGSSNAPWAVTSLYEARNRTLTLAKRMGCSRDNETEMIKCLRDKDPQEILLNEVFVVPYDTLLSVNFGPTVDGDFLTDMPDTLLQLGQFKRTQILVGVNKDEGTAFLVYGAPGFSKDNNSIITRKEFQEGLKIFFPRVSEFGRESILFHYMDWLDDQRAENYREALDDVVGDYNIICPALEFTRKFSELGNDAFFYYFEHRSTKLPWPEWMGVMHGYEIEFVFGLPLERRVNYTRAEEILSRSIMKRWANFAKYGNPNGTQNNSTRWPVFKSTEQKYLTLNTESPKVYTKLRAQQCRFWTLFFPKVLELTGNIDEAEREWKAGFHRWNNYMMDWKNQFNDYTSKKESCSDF
T1 sequence (O42275 24-633): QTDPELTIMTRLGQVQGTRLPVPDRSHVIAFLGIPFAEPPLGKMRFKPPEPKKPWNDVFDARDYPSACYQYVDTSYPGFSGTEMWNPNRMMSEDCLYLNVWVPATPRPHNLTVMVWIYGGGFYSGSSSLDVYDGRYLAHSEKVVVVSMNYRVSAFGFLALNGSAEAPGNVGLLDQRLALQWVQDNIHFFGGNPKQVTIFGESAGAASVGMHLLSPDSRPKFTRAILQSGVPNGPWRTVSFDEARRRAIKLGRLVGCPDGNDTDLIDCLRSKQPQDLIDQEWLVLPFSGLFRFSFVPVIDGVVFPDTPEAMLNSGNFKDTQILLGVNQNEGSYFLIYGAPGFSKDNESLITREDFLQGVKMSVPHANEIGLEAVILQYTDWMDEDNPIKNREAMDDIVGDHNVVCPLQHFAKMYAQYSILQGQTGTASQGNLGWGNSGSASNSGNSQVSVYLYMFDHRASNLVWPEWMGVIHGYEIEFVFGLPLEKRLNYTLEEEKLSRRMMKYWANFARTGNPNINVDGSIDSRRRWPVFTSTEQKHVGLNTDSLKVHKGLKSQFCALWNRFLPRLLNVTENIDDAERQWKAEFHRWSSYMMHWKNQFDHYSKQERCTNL

| SMILES | Shift of Absorbance, Zn(II) ([1]; absorption band at 237 nm) | Shift of Absorbance, Zn(II) [1, 7] | Shift of Absorbance, Cu(II) ([2]; absorption band at 237 nm) | Shift of Absorbance, Cu(II) [2, 7] | Propidium Displacement from EeAChE PAS (EeAChE PAS) | IC50 [3] | ABTS^•+ Scavenging Activity, TEAC [3] | Shift of Absorbance, Fe(II) ([4]; absorption band at 237 nm) | Shift of Absorbance, Fe(II) [4, 7] | Shift of Absorbance, Cu(II) [5] | Shift of Absorbance, Zn(II) [6] | FRAP, TE (FRAP assay) | αKi (non-competitive inhibition constant), eqBChE (eqBChE) | Ki (eqBChE) | αKi (non-competitive inhibition constant), AChE (AChE) | Ki (AChE) | Type of BChE inhibition (eqBChE; Lineweaver–Burk analysis) | Type of AChE inhibition (AChE; Lineweaver–Burk analysis) |
| --- | --- | --- | --- | --- | --- | --- | --- | --- | --- | --- | --- | --- | --- | --- | --- | --- | --- | --- |
| O=C(NCCCCCCNc1c2c(nc3ccccc13)CCCC2)c1ccccc1O [5b] | 254 nm | 351 nm | 254 nm | 352 nm | 12.6 ± 1.0% | 21300 ± 1500 nM | 0.93 and 0.90 ± 0.05 | 254 nm | 351 nm |  |  |  |  |  |  |  |  |  |
| O=C(NCCCCCCNc1c2c(nc3ccccc13)CCCC2)c1cc(F)c(F)cc1O [7b] |  |  |  |  | 12.2 ± 0.9% | > 200000 nM | 0.030 ± 0.001 |  |  | 253 nm | 352 nm | 0.03 |  |  |  |  |  |  |
| O=C(NCCCCCCCCNc1c2c(nc3ccccc13)CCCC2)c1cc(F)c(F)cc1O [7c] |  |  |  |  | 13.6 ± 1.0% | > 200000 nM | 0.040 ± 0.002 |  |  |  |  | 0.06 | 0.0243 ± 0.0001 µM | 17.3 ± 0.6 nM | 0.134 ± 0.009 µM | 125 ± 3 nM |  |  |
| Oc1ccccc1/C=N/CCCCCCCCNc1c2c(nc3ccccc13)CCCC2 [10c] |  |  |  |  | 19.8 ± 1.7% | 34200 ± 1800 nM | 0.42 ± 0.04 |  |  |  |  |  | 0.0152 ± 0.0009 µM | 8.4 ± 0.6 nM | 0.0644 ± 0.0040 µM | 29.9 ± 2.1 nM | mixed type of inhibition | mixed type of inhibition |
